Data reported in patent publication US20220184008A1, “MODULATORS OF INTRACELLULAR CHLORIDE CONCENTRATION” (FONDAZIONE ISTITUTO ITALIANO DI TECNOLOGIA, priority 2019, published 2022).

Experiments:
[1] = test system: NKCC1; assay: Calcium kinetic assay in primary cultures of immature hippocampal neurons; assay type: cell-based; conditions: 10 μM, immature neurons 3 DIV
Description: FIG. 2: In vitro testing of the NKCC1 inhibitors in a calcium kinetic assay. a) Example traces of fluorescence levels upon application of GABA (100 μM) and KCl (90 mM) used to trigger calcium influx in primary neuronal cultures treated after 3 days in culture (3 DIV) with vehicle, bumetanide, furosemide and compounds 3.8, 3.13 and 3.17 in the calcium kinetic assay. b) Quantification of the average fluorescence increase upon GABA application normalized to the increase upon KCl application in neurons treated with bumetanide, furosemide and 3 exemplary compounds (3.8, 3.13, 3.17) (10 μM, 100 μM). Data represents mean±sem from 5 independent experiments, and they are presented as % of the control. *P<0.05, **P<0.01, ***P<0.001 Kruskal-Wallis Anova (Dunn's Post hoc Test).
Next, the compounds of the invention were tested for their ability to revert the depolarizing GABAergic signaling in immature neurons. This effect was indirectly measured as calcium influx into the cells with an in vitro calcium kinetic assay in primary cultures of hippocampal neurons. The calcium kinetic assay exploits the physiological, endogenous, high expression of NKCC1 in immature neurons, which causes depolarizing actions of GABA and can activate voltage-gated Ca^2+ channels. Thus, in immature neurons, a compound that blocks NKCC1 is predicted to inhibit Ca^2+ responses upon GABA application. Immature neurons were cultured for 3 days in vitro (3 DIV) and loaded for 15 min with a calcium-sensitive dye (Fluo4). Then, the neurons were treated with bumetanide and furosemide (as positive controls) or with each of the selected compounds for 15 min. As a functional readout, the fluorescence level was monitored in these cultures before and after application of GABA (100 μM, for 20 sec). To test for neuronal viability at the end of the experiment, KCl was applied (90 mM, for 40 sec), which strongly depolarizes neurons, causing high activation of voltage-gated Ca^2+ channels in live cells. To quantify how bumetanide, furosemide, and selected compounds influenced NKCC1 inhibition, the fluorescence values were normalized upon GABA application to the fluorescence levels upon KCl application in treated neurons.

[2] = molecular target: T1, NKCC1 (Homo sapiens, UniProt P55011); assay: Chloride kinetic assay (Cl-sensitive YFP) in NKCC1-transfected HEK293 cells; assay type: cell-based; conditions: 10 μM, NKCC1-transfected HEK293; for inhibition at 10 µM: read-out: NKCC1 Inhibition % 10 μM HEK Chloride YFP assay
T1 construct: expressed in transfected cells; host or cells: HEK293
T1 sequence (P55011 1-1212): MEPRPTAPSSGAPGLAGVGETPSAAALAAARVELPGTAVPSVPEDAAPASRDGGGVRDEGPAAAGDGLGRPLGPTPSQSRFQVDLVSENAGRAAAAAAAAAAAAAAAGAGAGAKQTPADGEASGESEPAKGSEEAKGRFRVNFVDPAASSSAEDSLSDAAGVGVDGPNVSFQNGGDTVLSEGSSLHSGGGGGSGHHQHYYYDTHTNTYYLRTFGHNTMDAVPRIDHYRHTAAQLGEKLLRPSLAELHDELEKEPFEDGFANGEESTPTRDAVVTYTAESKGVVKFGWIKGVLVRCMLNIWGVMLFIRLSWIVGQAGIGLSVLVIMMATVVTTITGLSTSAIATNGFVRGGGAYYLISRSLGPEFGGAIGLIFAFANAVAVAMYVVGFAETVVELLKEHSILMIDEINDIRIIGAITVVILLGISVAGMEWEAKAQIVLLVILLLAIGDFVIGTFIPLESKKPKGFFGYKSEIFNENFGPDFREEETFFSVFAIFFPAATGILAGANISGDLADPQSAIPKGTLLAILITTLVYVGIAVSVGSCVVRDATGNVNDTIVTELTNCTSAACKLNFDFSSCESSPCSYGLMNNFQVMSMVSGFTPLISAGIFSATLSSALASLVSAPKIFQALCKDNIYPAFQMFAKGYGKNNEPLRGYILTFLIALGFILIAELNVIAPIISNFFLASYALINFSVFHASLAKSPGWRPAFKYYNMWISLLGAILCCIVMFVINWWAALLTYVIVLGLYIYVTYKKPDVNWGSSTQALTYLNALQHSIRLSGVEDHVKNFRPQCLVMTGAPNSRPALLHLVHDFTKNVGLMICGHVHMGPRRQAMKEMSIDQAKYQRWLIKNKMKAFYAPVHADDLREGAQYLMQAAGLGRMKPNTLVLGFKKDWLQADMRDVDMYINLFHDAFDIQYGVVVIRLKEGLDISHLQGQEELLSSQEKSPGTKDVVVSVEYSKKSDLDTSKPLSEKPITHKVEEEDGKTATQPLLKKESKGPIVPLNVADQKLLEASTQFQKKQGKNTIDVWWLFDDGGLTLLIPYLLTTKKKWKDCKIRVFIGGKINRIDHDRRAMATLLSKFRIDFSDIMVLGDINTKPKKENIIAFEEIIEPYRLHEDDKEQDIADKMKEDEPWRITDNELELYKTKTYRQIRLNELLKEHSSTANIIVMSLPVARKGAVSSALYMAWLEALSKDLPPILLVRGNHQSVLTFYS
Description: FIG. 1: In vitro testing of the NKCC1 inhibitors in the chloride kinetic assay a) Example traces obtained in the chloride kinetic assay on HEK cells transfected with the YFP (mock) or with YFP and NKCC1. The arrow indicates the addition of NaCl (final concentration 74 mM) used to initiate the flux assay. b) Quantification of the effect of bumetanide (10 μM and 100 μM) or furosemide (10 μM and 100 μM) in the chloride kinetic assay on mock or NKCC1-transfected HEK293 cells. Data represents mean±sem from 5 independent experiments. c) Quantification of the effect of bumetanide and furosemide and 2 selected compounds (3.8, 3.17) in the chloride kinetic assay on NKCC1-transfected HEK293 cells. Data represents mean±sem from 5 independent experiments, and they are represented as % of the controls. *P<0.05, **P<0.01, ***P<0.001 Kruskal-Wallis Anova (Dunn's Post hoc Test); ###P<0.001 two-tailed unpaired Student t-test.
To screen in vitro the compounds efficiency in blocking NKCC1, a functional NKCC1 transporter assay was performed by measuring variation of Cl^− ion concentration in the cell through a Cl^− sensitive membrane-tagged yellow fluorescent protein (mbYFPQS, Addgene). mbYFPQS fluorescence is inversely dependent on the concentration of Cl^− inside the cell thus allowing an indirect estimation of the Cl^− transporter activity. In particular, HEK293 cells were transfected with NKCC1 or mock construct (control) together with the Cl^− sensitive YFP. After 2 DIV, the cells were treated with bumetanide and furosemide (as positive controls) or with each of the tested compounds of the invention in a Cl^− free medium. After 30 min, the inhibitory activity of the compounds was tested by monitoring fluorescence upon application of NaCl (FIG. 1a). Transported by NKCC1, Cl binds the YFP, leading to a fluorescence decrease. […] With the Cl kinetic assay, the NKCC1 inhibitory activity of the selected compounds was tested (FIG. 1c).

Structure (SMILES) | inhibition at 10 µM ([2]; Table 1) [%] | NKCC1 Inhibition % 10 μM HEK Chloride YFP assay ([2]; Table 1) | NKCC1 Inhibition % 10 μM HEK Chloride YFP assay ([2]; Table 2) | NKCC1 Inhibition % 10 μM Neurons Calcium kinetic assay ([1]; Table 1) | NKCC1 Inhibition % 10 μM Neurons Calcium kinetic assay ([1]; Table 2)
O=C(O)c1ccc(NCCCCCCCC(F)(F)F)c(S(=O)(=O)NC2CCCC2)c1 [Compound 3.21, 3-(cyclopentylsulfamoyl)-4-(8,8,8-trifluorooctylamino) benzoic acid] | 18 |  |  | 51% | 51%
O=C(O)c1ccc(NCCCCCCCC(F)(F)F)c(S(=O)(=O)NC2CCCCC2)c1 [Compound 3.22, 3-(cyclohexylsulfamoyl)-4-(8,8,8-trifluorooctylamino) benzoic acid] | 4 |  |  | 54% | 54%
O=C(O)c1ccc(NCCCCCCCC(F)(F)F)c(S(=O)(=O)N2CCOCC2)c1 [Compound 5.7, 3-morpholinosulfonyl-4-(8,8,8-trifluorooctylamino) benzoic acid] | 13 |  |  | 24% | 24%
COCCCCCCNc1ccc(C(=O)O)cc1S(=O)(=O)N(C)C [Compound 3.20, 3-(dimethylsulfamoyl)-4-(6-methoxyhexylamino)benzoic acid] |  | Inactive | Inactive | 20% | 20%
COCCNc1ccc(C(=O)O)cc1S(=O)(=O)N(C)C [Compound 3.18, 3-(dimethylsulfamoyl)-4-(2-methoxyethylamino)benzoic acid] | 13 |  |  | Inactive | Inactive
CN(C)S(=O)(=O)c1cc(C#N)ccc1NCCCCCCCC(F)(F)F [Compound 6.3, 5-cyano-N,N-dimethyl-2-(8,8,8-trifluorooctylamino) benzenesulfonamide] | 20 |  |  |  | 
O=C(O)c1ccc(NCCCCCCCC(F)(F)F)c(S(=O)(=O)N2CCCC2)c1 [Compound 5.5, 3-pyrrolidin-1-ylsulfonyl-4-(8,8,8-trifluorooctylamino) benzoic acid] | 2 |  |  | 39% | 39%
CNS(=O)(=O)c1cc(C(=O)O)ccc1NCCCCCCCC(F)(F)F [Compound 3.10, 3-(methylsulfamoyl)-4-(8,8,8-trifluorooctylamino)benzoic acid] |  | Inactive | Inactive | 14% | 14%
COCCCCNc1ccc(C(=O)O)cc1S(=O)(=O)N(C)C [Compound 3.19, 3-(dimethylsulfamoyl)-4-(4-methoxybutylamino)benzoic acid] | 6 |  |  | Inactive | Inactive
CN(C)S(=O)(=O)c1cc(C(=O)O)ccc1NCCCC(F)(F)F [Compound 3.15, 3-(dimethylsulfamoyl)-4-(4,4,4 trifluorobutylamino) benzoic acid] | 11 |  |  | Inactive | Inactive
CCOc1cc(NCCCCCCCC(F)(F)F)c(S(=O)(=O)N(C)C)cc1C(=O)O [Compound 12.9] |  |  |  | 12.2% | 
COc1cc(NCCCCCCCC(F)(F)F)c(S(=O)(=O)N(C)C)cc1C(=O)O [Compound 13.1, 5-(N,N-dimethylsulfamoyl)-2-methoxy-4-((8,8,8-trifluorooctyl)amino)benzoic acid] |  |  |  | 14.2% | 
CN(C)S(=O)(=O)c1cc(C(=O)O)ccc1NCCCCCC(F)(F)F [Compound 3.16, 3-(dimethylsulfamoyl)-4-(6,6,6-trifluorohexylamino) benzoic acid] | 17 |  |  | Inactive | Inactive
O=C(O)c1ccc(NCCCCCCCC(F)(F)F)c(S(=O)(=O)N2CCOCC2)c1 [Compound 14.3, 3-morpholinosulfonyl-4-((8,8,8-trifluorooctyl)amino)benzoic acid] |  |  |  | 7.1% | 
CN(C)S(=O)(=O)c1cc(C(=O)O)c(OC2CCCC2)cc1NCCCCCCCC(F)(F)F [Compound 12.10] |  |  |  | 26.6% | 
O=C(O)c1ccc(NCCCCCCCC(F)(F)F)c(S(=O)(=O)N2CCC(F)(F)CC2)c1 [Compound 14.4, 3-((4,4-difluoropiperidin-1-yl)sulfonyl)-4-((8,8,8-trifluorooctyl)amino)benzoic acid] |  |  |  | 48.0% | 

More lines, main results first:

inhibition at 10 µM ([2]; Table 1) [%] | NKCC1 Inhibition % 10 μM HEK Chloride YFP assay ([2]; Table 1) | NKCC1 Inhibition % 10 μM HEK Chloride YFP assay ([2]; Table 2) | Structure (SMILES) | NKCC1 Inhibition % 10 μM Neurons Calcium kinetic assay ([1]; Table 1) | NKCC1 Inhibition % 10 μM Neurons Calcium kinetic assay ([1]; Table 2)
30 |  |  | NS(=O)(=O)c1cc(C(=O)O)c(O)cc1NCCCCCCCC(F)(F)F [Compound 7.4, 2-hydroxy-5-sulfamoyl-4-(8,8,8-trifluorooctylamino) benzoic acid] | 24% | 
3 |  |  | CN(C)S(=O)(=O)c1cc(C(=O)O)ccc1N1CCN(CCCCC(F)(F)F)CC1 [Compound 9.1, 3-(dimethylsulfamoyl)-4-[4-(5,5,5 trifluoropentyl)piperazin-1-yl] benzoic acid] |  | 
